Assay results: patent US20260356821A1, “SOLID FORMS OF AN ERBB INHIBITOR” (Black Diamond Therapeutics, Inc., priority 2023, published 2026)
≈ marks a conversion by molar mass, not a printed value. Entries after “also recorded” stand apart in the source; their conditions may differ.

Key:
Assay type in all cases: physicochemical
[1] = Bulk Stability (solid state; HPLC purity, color, XRPD)
Procedure: (§1) X-ray Powder Diffractometer (XRPD): XRPD analysis was performed using a Bruker D8 Advance X-ray powder diffractometer. Analysis was performed using parameters as set forth below.
(§2) High Performance Liquid Chromatograph (HPLC): HPLC analysis was performed using SHIMADZU LC-20AD/Agilent 1260 infinity II Binary Pump. Analysis was performed using parameters as set forth below.
Bulk Stability: Form M was evaluated for bulk stability studies. The bulk stability study was conducted in 3 conditions including 25 °C/92% RH in an open container, 40 °C/75% RH in an open container and 60 °C in a tight container for 1 week, 2 weeks and 4 weeks, respectively.

Hygroscopicity by DVS = details: 25 °C
Procedure: as §1
Dynamic Vapor Sorption (DVS): DVS analysis was performed using Intrinsic. Analysis was performed using parameters as set forth below.
Hygroscopicity: The hygroscopicity for Form M was examined by DVS.

[2] = Crystallinity after drying under vacuum
Procedure: as §1
To explore further optimization of the crystallinity of the salt, about 25 mg of dry cake were re-equilibrated in 7 different solvents for 3 days. Solids obtained were analyzed by XRPD and 1H-NMR. […]

[3] = Solubility in aqueous media, 37 °C
Procedure: as §1, §2
Solubility: 6.39 mg of the L-malate salt Form M (equal to 4 mg free base) was weighed into an 8 mL vial. 2 mL of aqueous media was added, respectively. The suspension was stirred at 37 °C with 400 rpm for 2 h and 24 h. The suspension was taken out after 2 h and 24 h and then centrifuged at 14,000 rpm for 5 min. The supernatant was analyzed by HPLC. The pH of the supernatant was tested. The solids obtained (wet cakes) were characterized by XRPD. Table 3 summarizes the observation of the solubility study.

[4] = 25 °C/92% RH, open container, 1 week
[5] = 40 °C/75% RH, open container, 1 week
[6] = 40 °C/75% RH, open container, 2 weeks
[7] = 40 °C/75% RH, open container, 4 weeks
[8] = 60 °C, tight container, 2 weeks

CN1C[C@H]2C[C@@]2(C#Cc2cc3ncnc(Nc4cccc(Cl)c4F)c3cc2NC(=O)/C=C/CN2CCOCC2)C1 [Form M, (E)-N-(4-((3-chloro-2-fluorophenyl)amino)-7-(((1R,5S)-3-methyl-3-azabicyclo[3.1.0]hexan-1-yl)ethynyl)quinazolin-6-yl)-4-morpholinobut-2-enamide]
Bulk (XRPD) [1, 4]: No form change (Agglomeration)
Color [1, 4]: No change of color
Color ([1]; 25 °C/92% RH, open container, 2 weeks): No change of color
Bulk (XRPD) ([1]; 25 °C/92% RH, open container, 2 weeks, no form change after dried under ambient condition): Sticky sample;; also recorded: No form change after dried under ambient
Color ([1]; 25 °C/92% RH, open container, 4 weeks): No change of color
Bulk (XRPD) ([1]; 25 °C/92% RH, open container, 4 weeks, no form change after dried under ambient condition): Sticky sample;; also recorded: No form change after dried under ambient
Bulk (XRPD) [1, 5]: No form change
Color [1, 5]: No change of color
Bulk (XRPD) [1, 6]: No form change
Color [1, 6]: No change of color
Bulk (XRPD) [1, 7]: No form change
Color [1, 7]: No change of color
Bulk (XRPD) ([1]; 60 °C, tight container, 1 week): No form change (Crystallinity decreased)
Color ([1]; 60 °C, tight container, 1 week): No change of color
Bulk (XRPD) [1, 8]: No form change (Crystallinity decreased)
Color [1, 8]: No change of color
Color ([1]; 60 °C, tight container, 4 weeks): No change of color
Bulk (XRPD) ([1]; 60 °C, tight container, 4 weeks, (Crystallinity decreased)): No form change; also recorded: (Crystallinity decreased)
Initial Purity by HPLC ([1]; initial, before storage): 94.0%
Desorp. (%) (Hygroscopicity by DVS; 0% RH, first desorption): 0.0%
Sorp. (%) (Hygroscopicity by DVS; 0% RH, second sorption): 0.0%
Desorp. (%) (Hygroscopicity by DVS; 10% RH, first desorption): 1.4%
Sorp. (%) (Hygroscopicity by DVS; 10% RH, second sorption): 0.6%
Desorp. (%) (Hygroscopicity by DVS; 20% RH, first desorption): 2.5%
Sorp. (%) (Hygroscopicity by DVS; 20% RH, second sorption): 1.4%
Desorp. (%) (Hygroscopicity by DVS; 30% RH, first desorption): 3.6%
Sorp. (%) (Hygroscopicity by DVS; 30% RH, second sorption): 2.2%
Desorp. (%) (Hygroscopicity by DVS; 40% RH, first desorption): 5.0%
Sorp. (%) (Hygroscopicity by DVS; 40% RH, first sorption): 4.1%
Desorp. (%) (Hygroscopicity by DVS; 40% RH, second desorption): 5.2%
Sorp. (%) (Hygroscopicity by DVS; 40% RH, second sorption): 3.1%
Desorp. (%) (Hygroscopicity by DVS; 50% RH, first desorption): 6.1%
Sorp. (%) (Hygroscopicity by DVS; 50% RH, first sorption): 4.4%
Desorp. (%) (Hygroscopicity by DVS; 50% RH, second desorption): 6.4%
Sorp. (%) (Hygroscopicity by DVS; 50% RH, second sorption): 4.2%
Desorp. (%) (Hygroscopicity by DVS; 60% RH, first desorption): 7.4%
Sorp. (%) (Hygroscopicity by DVS; 60% RH, first sorption): 4.9%
Desorp. (%) (Hygroscopicity by DVS; 60% RH, second desorption): 7.4%
Sorp. (%) (Hygroscopicity by DVS; 60% RH, second sorption): 5.6%
Desorp. (%) (Hygroscopicity by DVS; 70% RH, first desorption): 9.3%
Sorp. (%) (Hygroscopicity by DVS; 70% RH, first sorption): 5.6%
Desorp. (%) (Hygroscopicity by DVS; 70% RH, second desorption): 8.7%
Sorp. (%) (Hygroscopicity by DVS; 70% RH, second sorption): 7.5%
Desorp. (%) (Hygroscopicity by DVS; 80% RH, first desorption): 13.5%
Sorp. (%) (Hygroscopicity by DVS; 80% RH, first sorption): 6.9%
Desorp. (%) (Hygroscopicity by DVS; 80% RH, second desorption): 11.4%
Sorp. (%) (Hygroscopicity by DVS; 80% RH, second sorption): 9.7%
Desorp. (%) (Hygroscopicity by DVS; 90% RH, first desorption): 29.5%
Sorp. (%) (Hygroscopicity by DVS; 90% RH, first sorption): 15.3%
Desorp. (%) (Hygroscopicity by DVS; 90% RH, second desorption): 20.9%
Sorp. (%) (Hygroscopicity by DVS; 90% RH, second sorption): 15.8%
Desorp. (%) (Hygroscopicity by DVS; 95% RH, first desorption): 41.2%
Sorp. (%) (Hygroscopicity by DVS; 95% RH, first sorption): 41.2%
Desorp. (%) (Hygroscopicity by DVS; 95% RH, second desorption): 31.5%
Sorp. (%) (Hygroscopicity by DVS; 95% RH, second sorption): 31.5%
XRPD after DVS test (Hygroscopicity by DVS; after cycle 40-95-0-95-40% RH): No form change
DVS (Hygroscopicity by DVS; at 70% RH): 1.5% at 70% RH
DVS (Hygroscopicity by DVS; at 95% RH): 37.1% at 95% RH
crystallinity after drying [2]: crystallinity decreased
Solubility ([3]; FaSSIF-v1, pH 6.5, 37 °C, 2 h): Degradation
pH of the supernatant ([3]; FaSSIF-v1, pH 6.5, 37 °C, 2 h): pH 4.9
Solubility ([3]; FaSSIF-v1, pH 6.5, 37 °C, 24 h): Degradation
pH of the supernatant ([3]; FaSSIF-v1, pH 6.5, 37 °C, 24 h): pH 4.8
Solubility ([3]; FeSSIF-v1, pH 5.0, 37 °C, 2 h): Degradation
pH of the supernatant ([3]; FeSSIF-v1, pH 5.0, 37 °C, 2 h): pH 4.9
Solubility ([3]; FeSSIF-v1, pH 5.0, 37 °C, 24 h): Degradation
pH of the supernatant ([3]; FeSSIF-v1, pH 5.0, 37 °C, 24 h): pH 4.8
pH of the supernatant ([3]; SGF, pH 2.0, 37 °C, 2 h): pH 2.8
solubility at 2 h ([3]; SGF, pH 2.0, 37 °C, 2 h): > 2000 µg/mL
pH of the supernatant ([3]; SGF, pH 2.0, 37 °C, 24 h): pH 2.6
solubility at 24 h ([3]; SGF, pH 2.0, 37 °C, 24 h): > 2000 µg/mL
pH of the supernatant ([3]; Water, 37 °C, 2 h): pH 4.3
solubility at 2 h ([3]; Water, 37 °C, 2 h): 1490 µg/mL (≈ 2.65 mM)
pH of the supernatant ([3]; Water, 37 °C, 24 h): pH 4.3
solubility at 24 h ([3]; Water, 37 °C, 24 h): 1780 µg/mL (≈ 3.17 mM)
solubility at 2 h ([3]; aqueous buffer, pH 4.5 (50 mM) acetate buffer, 37 °C, 2 h): > 2000 µg/mL
solubility at 24 h ([3]; aqueous buffer, pH 4.5 (50 mM) acetate buffer, 37 °C, 24 h): > 2000 µg/mL
solubility at 2 h ([3]; aqueous buffer, pH 6.8 (50 mM) phosphate buffer, 37 °C, 2 h): 183 µg/mL (≈ 0.326 mM)
solubility at 24 h ([3]; aqueous buffer, pH 6.8 (50 mM) phosphate buffer, 37 °C, 24 h): 189 µg/mL (≈ 0.336 mM)
pH of the supernatant ([3]; pH 1.0 (0.1N HCl), 37 °C, 2 h): pH 0.9
solubility at 2 h ([3]; pH 1.0 (0.1N HCl), 37 °C, 2 h): > 2000 µg/mL
pH of the supernatant ([3]; pH 1.0 (0.1N HCl), 37 °C, 24 h): pH 0.8
solubility at 24 h ([3]; pH 1.0 (0.1N HCl), 37 °C, 24 h): > 2000 µg/mL
pH of the supernatant ([3]; pH 4.5 (50 mM) acetate buffer, 37 °C, 2 h, marked *): pH 4.5*
pH of the supernatant ([3]; pH 4.5 (50 mM) acetate buffer, 37 °C, 24 h): pH 4.4
pH of the supernatant ([3]; pH 6.8 (50 mM) phosphate buffer, 37 °C, 2 h): pH 6.2
pH of the supernatant ([3]; pH 6.8 (50 mM) phosphate buffer, 37 °C, 24 h): pH 6.3
